Reference: ChEMBL document CHEMBL1132326, “Synthesis and dopamine receptor modulating activity of substituted bicyclic thiazolidine lactam peptidomimetics of L-prolyl-L-leucyl-glycinamide” (1999)

How the values were obtained:
Rattus norvegicus [1] = experiment: Effect on rotational behavior in rat after i.p. administration of 1 ug/kg; format: functional
Rattus norvegicus [2] = experiment: Effect on rotational behavior in rat after i.p. administration of 0.1 ug/kg; format: functional

Structure (SMILES)	Increase (Rattus norvegicus [1])	Increase (Rattus norvegicus [2])
NC(=O)[C@H]1CS[C@@H]2C[C@@](Cc3ccccc3)(NC(=O)[C@@H]3CCCN3)C(=O)N12	30%	
CC(C)C[C@@]1(NC(=O)[C@@H]2CCCN2)C[C@H]2SC[C@H](C(N)=O)N2C1=O	44%	
NC(=O)[C@H]1CS[C@@H]2C[C@@H](NC(=O)[C@@H]3CCCN3)C(=O)N12		23%
CCCC[C@@]1(NC(=O)[C@@H]2CCCN2)C[C@H]2SC[C@H](C(N)=O)N2C1=O		56%
